Test results: PubChem BioAssay (NCI)
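Test compounds were applied to cells in 96-well plates for 48 hours at 5 doses. Here, GI50 denotes the concentration required for 50% inhibition of growth. The concentration for full growth arrest is given as TGI.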

Key:
Experiment in all cases: NCI tumour cell line growth inhibition, 48 h
SNB-78 CNS = test system: SNB-78 CNS
DLD-1 colon = test system: DLD-1 colon
KM20L2 colon = test system: KM20L2 colon
HOP-18 NSCLC = test system: HOP-18 NSCLC
LXFL 529 NSCLC = test system: LXFL 529 NSCLC
MDA-N = test system: MDA-N
RXF-631 renal = test system: RXF-631 renal
M19-MEL melanoma = test system: M19-MEL melanoma
XF 498 CNS = test system: XF 498 CNS

Row | Compound | GI50 (SNB-78 CNS) | TGI (SNB-78 CNS) | GI50 (DLD-1 colon) | TGI (DLD-1 colon) | GI50 (KM20L2 colon) | TGI (KM20L2 colon) | GI50 (HOP-18 NSCLC) | TGI (HOP-18 NSCLC) | GI50 (LXFL 529 NSCLC) | TGI (LXFL 529 NSCLC) | TGI (MDA-N) | TGI (RXF-631 renal) | TGI (M19-MEL melanoma) | TGI (XF 498 CNS) | GI50 (MDA-N) | GI50 (M19-MEL melanoma)
1 | N.N.N.N.N.NC(=O)c1nn[n-]n1.[Cl-].[Co+3] | > 100 µM | > 100 µM | > 100 µM | > 100 µM | > 100 µM | > 100 µM | > 100 µM | > 100 µM | > 100 µM | > 100 µM |  |  |  |  |  | 
2 | Cc1c[n+](=O)c2ccccc2n1[O-] |  |  |  |  |  |  |  |  |  |  | > 100 µM |  |  |  |  | 
3 | COc1cc(Br)c(C=Nc2cccc3cc(OC)c(OC)cc23)cc1OC |  | > 100 µM |  | > 100 µM |  | > 100 µM |  | > 100 µM |  | > 100 µM |  | > 100 µM | > 100 µM |  |  | 
4 | C=C(C)[C@@H]1CC[C@]2(C)CC[C@]3(C)[C@H](CC[C@@H]4[C@@]5(C)CC[C@H](O)C(C)(C)[C@@H]5CC[C@]43C)[C@@H]12 |  |  |  | > 100 µM |  | > 100 µM |  |  |  | > 100 µM | > 100 µM |  | > 100 µM | > 100 µM |  | 
5 | O=C1CC(O)CC(=O)C1=C(O)CCCCCCCCCCc1ccccc1 (stereo not drawn) |  | > 100 µM |  | > 100 µM |  | > 100 µM |  | > 100 µM |  | > 100 µM |  | > 100 µM | > 100 µM | > 100 µM |  | 
6 | O=C(O)CCN(CCCCN(CCC(=O)O)CCC(=O)O)CCC(=O)O |  |  |  | > 100 µM |  |  |  | > 100 µM |  | > 100 µM |  |  | > 100 µM | > 100 µM |  | 
7 | O.O.[NH-]C1(C(=O)O)CCCC1.[NH-]C1(C(=O)O)CCCC1.[Ni+2] |  |  |  |  |  |  |  |  |  |  | > 100 µM |  |  |  | > 100 µM | 
8 | COc1ccc(C23C(=O)c4ccccc4N2O[C@H]2C(=O)N(c4ccccc4)C(=O)[C@H]23)cc1 (stereo partly drawn) |  | > 100 µM |  | > 100 µM |  | > 100 µM |  | > 100 µM |  | > 100 µM |  | > 100 µM | > 100 µM | > 100 µM |  | 
9 | N.N.N.N.[Co+3].[N-]=[N+]=[N-].[N-]=[N+]=[N-].[N-]=[N+]=[N-] | > 100 µM | > 100 µM | > 100 µM | > 100 µM | > 100 µM | > 100 µM |  |  | > 100 µM | > 100 µM |  |  |  |  |  | 
10 | O=C1N(C2CCCCC2)CC12CCCCC2 |  | > 100 µM |  |  |  | > 100 µM |  | > 100 µM |  |  |  | > 100 µM | > 100 µM | > 100 µM |  | 
11 | Cc1nnn[n-]1.N.N.N.N.N.[Cl-].[Co+3] |  |  | > 100 µM | > 100 µM | > 100 µM | > 100 µM | > 100 µM | > 100 µM | > 100 µM | > 100 µM |  |  |  |  |  | 
12 | CSC(=Nc1nnc(-c2ccc([N+](=O)[O-])cc2)s1)SC |  | 60.9 µM |  | > 100 µM |  | > 100 µM |  | > 71.6 µM |  | > 100 µM | > 100 µM |  | > 100 µM | 43.3 µM |  | 
13 | CC1(C)O[C@H]2[C@H](O)C[C@](O)(CO)C[C@H]2O1 |  | > 100 µM |  | > 100 µM |  | > 100 µM |  |  |  | > 100 µM |  | > 100 µM | > 100 µM |  |  | 
14 | NC(=O)C(=O)N/N=C1\C(=O)N(c2ccc(Cl)cc2Cl)C(=O)C1C(=O)Nc1ccc(Cl)cc1Cl (stereo not drawn) |  | > 100 µM |  | > 100 µM |  | > 100 µM |  | > 100 µM |  | > 100 µM |  |  | > 100 µM | > 100 µM |  | 
15 | O=C(O)CN(CC(=O)O)Cc1cc(C#Cc2ccc(C#Cc3ccccc3)cc2)cc(CN(CC(=O)O)CC(=O)O)n1 |  | > 100 µM |  | > 68.1 µM |  | > 76.3 µM |  | > 100 µM |  | > 76.4 µM | > 100 µM |  | 39.9 µM | > 100 µM |  | 
16 | O=[N+]([O-])c1ccc(C[P+](c2ccccc2)(c2ccccc2)c2ccccc2)cc1 |  |  |  | > 100 µM |  | > 100 µM |  | > 100 µM |  | > 100 µM |  |  | 81.2 µM |  |  | 
17 | COC(=O)NC(=O)c1cn(C2OC(CO)C(O)C2O)c(=O)[nH]c1=O (stereo not drawn) |  | > 100 µM |  | > 100 µM |  | > 100 µM |  |  |  | > 100 µM |  |  | > 100 µM |  |  | 
18 | CCOC(=O)C12CCCC1(O)N(NC(=O)OC(C)(C)C)C(C)=C2C(=O)OC (stereo not drawn) |  | > 100 µM |  | > 100 µM |  | > 100 µM |  | > 100 µM |  | > 100 µM |  | > 100 µM | > 100 µM | > 100 µM |  | 
19 | CCCCCCCCCCCc1nnc(N)o1 |  | > 100 µM |  | > 100 µM |  | > 100 µM |  |  |  | > 100 µM |  | > 100 µM | > 100 µM | > 100 µM |  | 
20 | CN(O)C(=O)SCC(NC(=O)CCC(N)C(=O)O)C(=O)NCC(=O)O (stereo not drawn) |  | > 2 µM | > 2000 µM | > 2000 µM | > 2000 µM | > 2000 µM | > 2000 µM | > 2000 µM | > 2000 µM | > 2000 µM |  |  | > 2000 µM |  |  | > 2000 µM

Row | Compound | GI50 (SNB-78 CNS) | TGI (SNB-78 CNS) | GI50 (DLD-1 colon) | TGI (DLD-1 colon) | GI50 (KM20L2 colon) | TGI (KM20L2 colon) | GI50 (HOP-18 NSCLC) | TGI (HOP-18 NSCLC) | GI50 (LXFL 529 NSCLC) | TGI (LXFL 529 NSCLC) | TGI (MDA-N) | TGI (RXF-631 renal) | TGI (M19-MEL melanoma) | TGI (XF 498 CNS) | GI50 (MDA-N) | GI50 (M19-MEL melanoma)
21 | O=C(Nc1ccc([As](=O)(O)O)cc1)Nc1cccc(Cl)c1Cl |  |  |  |  |  |  |  |  |  |  | > 100 µM |  |  |  |  | 
22 | COc1ccc(/C=N/N=C(\N)NO)cc1O |  | > 100 µM |  | > 100 µM |  |  |  | > 100 µM |  | > 100 µM |  |  |  |  |  | 
23 | O/N=C1/C(=C/c2ccc3c(c2)OCO3)CCCC1C(NO)c1ccc2c(c1)OCO2 (stereo not drawn) |  | 87.7 µM |  | 98.8 µM |  | 34.6 µM |  | 42.5 µM |  | 51.4 µM |  |  | 62 µM | 62.2 µM |  | 
24 | COC(=O)CC1C[C@H](C#N)N(C(=O)c2ccccc2)C[C@@H]1CC[N+](=O)[O-] (stereo partly drawn) |  | > 100 µM |  | > 100 µM |  | > 100 µM |  | > 100 µM |  | > 100 µM |  |  | > 100 µM | > 100 µM |  | 
25 | O=C(O)CCCSC(=O)Nc1ccc(N=Nc2ccccc2)cc1 |  | > 100 µM |  |  |  | > 100 µM |  |  |  | > 100 µM |  |  |  |  |  | 
26 | COc1ccc(-c2cc3c(c4cc(OC)ccc24)C(=O)OC3=O)cc1 |  |  |  |  |  |  |  |  |  |  | > 100 µM |  |  |  |  | 
27 | O=C(COc1ccc(Cl)cc1)N1N=C(c2ccc(Cl)cc2)CC1(O)c1ccccc1 (stereo not drawn) |  | > 56.7 µM |  | 49.5 µM |  | > 50.9 µM |  | > 100 µM |  | > 100 µM |  |  | > 63.4 µM | > 100 µM |  | 
28 | CC1=C(C(=O)Nc2cc(=O)n(C)c(=O)n2C)C(c2ccco2)C(C(=O)Nc2cc(=O)n(C)c(=O)n2C)=C(C)N1 |  | > 100 µM |  | > 100 µM |  | > 100 µM |  |  |  | > 100 µM |  | > 100 µM | > 100 µM | > 100 µM |  | 
29 | CCN(CC)c1c(C(=O)/C=C/c2ccc(Cl)cc2)c(-c2ccccc2)nn(C)c1=O |  | 5.93 µM |  | 3.99 µM |  | 7.84 µM |  | 4.83 µM |  | 3.42 µM |  | 3.99 µM | 3.14 µM |  |  | 
30 | CC(C)Cn1cnc2c(SCc3ccc(Cl)cc3Cl)nc(N)nc21 |  |  |  |  |  |  |  |  |  |  | > 100 µM |  |  |  |  | 
31 | O=C(O)C1=C(O)C(C(=O)O)C23CCCCCCCCCCC12C(C(=O)O)C(O)=C3C(=O)O (stereo not drawn) |  |  |  | > 100 µM |  |  |  | > 100 µM |  | > 100 µM |  |  | > 100 µM | > 100 µM |  | 
32 | O=C(NCCCCNc1cccccc1=O)OCc1ccccc1 |  | > 100 µM |  | > 100 µM |  | > 100 µM |  | > 100 µM |  | > 100 µM |  | > 100 µM | > 100 µM |  |  | 
33 | Cc1cc(CC(=O)NCCO)n(CCO)c(=O)c1 |  | > 100 µM |  | > 100 µM |  |  |  | > 100 µM |  | > 100 µM |  | > 100 µM | > 100 µM | > 100 µM |  | 
34 | C=CCNC(=O)N(CCCCC(NC(C)=O)C(=O)NCc1ccccc1)Cc1ccccc1 (stereo not drawn) |  |  |  |  |  | > 100 µM |  | > 100 µM |  | > 100 µM |  | > 100 µM | > 100 µM | > 100 µM |  | 
35 | CCc1ccccc1NC(=O)C1=C(C)NC(C)=C(C(=O)Nc2ccccc2CC)C1c1ccccc1Cl |  | > 100 µM |  | > 100 µM |  | > 100 µM |  |  |  | > 100 µM |  |  | > 100 µM | > 100 µM |  | 
36 | COC1=C(N)C(=O)c2nc(C)ccc2C1=O |  | 14.1 µM |  | 5.31 µM |  | 5.07 µM |  | 3.53 µM |  | 6.21 µM |  |  | 0.715 µM | 2.84 µM |  | 
37 | CN(/N=C/c1cccc2cccnc12)c1ccc([N+](=O)[O-])cc1[N+](=O)[O-] |  | 61.6 µM |  | > 100 µM |  | > 100 µM |  | > 100 µM |  | > 100 µM | > 100 µM | > 100 µM | > 100 µM | 19.2 µM |  | 
38 | N#CC1(C#N)C2(c3ccccc3)OC(c3ccccc3)(c3cc4ccccc4cc32)C1(C#N)C#N |  |  |  | 22.3 µM |  | 26.4 µM |  | 17.8 µM |  | 3.14 µM | 34.4 µM |  |  |  |  | 
39 | CNC(=O)Nc1nc2ccc([N+](=O)[O-])cc2[nH]1 |  |  |  |  |  |  |  |  |  |  | > 100 µM |  |  |  |  | 
40 | COC(=O)C1CC23CCCN4CCC5(c6ccccc6N(C=O)C15CC2)C43 (stereo not drawn) |  |  |  |  |  |  |  |  |  |  | > 100 µM |  |  |  |  | 
